PubChem BioAssay AID1963979 (Molecular Pharmacology Branch, DTP, NCI, 2024)
Values joined by “and” are separate entries in the source; they are usually repeats but may differ in a detail not shown here. Equal values may be shown once. Values belong to the compound of their own block, whether it stands above or below them.

Tested on: 361931-004-R-J1-PDC multicell spheroid viability
Experiment: Anticancer human tumor 361931-004-R-J1-PDC patient-derived colon adenocarcinoma cell line growth inhibition [PI3K]
Conditions: for viability, T/C: stronger effect = lower value
Outline: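 Targeted small molecules plus PI3K inhibitors, half-log dose series from Cmax (default top 10 microM), were applied to heterotypic spheroids of cancer cells with HUVEC and MSCs. Viability indicated growth inhibition.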

[1] = curve of first compound, second compound 0.00316 µM
[2] = curve of first compound, second compound 0.01 µM
[3] = curve of first compound, second compound 0.0316 µM
[4] = curve of first compound, second compound 0.1 µM
[5] = curve of first compound, second compound 0.316 µM
[6] = curve of first compound, second compound 1 µM
[7] = second compound 0.00316 µM, first compound 0.000316 µM
[8] = second compound 0.00316 µM, first compound 0.001 µM
[9] = second compound 0.00316 µM, first compound 0.00316 µM
[10] = second compound 0.00316 µM, first compound 0.01 µM
[11] = second compound 0.00316 µM, first compound 0.0316 µM
[12] = second compound 0.00316 µM, first compound 0.1 µM
[13] = second compound 0.01 µM, first compound 0.000316 µM
[14] = second compound 0.01 µM, first compound 0.001 µM
[15] = second compound 0.01 µM, first compound 0.00316 µM
[16] = second compound 0.01 µM, first compound 0.01 µM
[17] = second compound 0.01 µM, first compound 0.0316 µM
[18] = second compound 0.01 µM, first compound 0.1 µM
[19] = second compound 0.0316 µM, first compound 0.000316 µM
[20] = second compound 0.0316 µM, first compound 0.001 µM
[21] = second compound 0.0316 µM, first compound 0.00316 µM
[22] = second compound 0.0316 µM, first compound 0.01 µM
[23] = second compound 0.0316 µM, first compound 0.0316 µM
[24] = second compound 0.0316 µM, first compound 0.1 µM
[25] = second compound 0.1 µM, first compound 0.000316 µM
[26] = second compound 0.1 µM, first compound 0.001 µM
[27] = second compound 0.1 µM, first compound 0.00316 µM
[28] = second compound 0.1 µM, first compound 0.01 µM
[29] = second compound 0.1 µM, first compound 0.0316 µM
[30] = second compound 0.1 µM, first compound 0.1 µM
[31] = second compound 0.316 µM, first compound 0.000316 µM
[32] = second compound 0.316 µM, first compound 0.001 µM
[33] = second compound 0.316 µM, first compound 0.00316 µM
[34] = second compound 0.316 µM, first compound 0.01 µM
[35] = second compound 0.316 µM, first compound 0.0316 µM
[36] = second compound 0.316 µM, first compound 0.1 µM
[37] = second compound 1 µM, first compound 0.000316 µM
[38] = second compound 1 µM, first compound 0.001 µM
[39] = second compound 1 µM, first compound 0.00316 µM
[40] = second compound 1 µM, first compound 0.01 µM
[41] = second compound 1 µM, first compound 0.0316 µM
[42] = second compound 1 µM, first compound 0.1 µM
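Further: spheroids exposed to agents for seven days before readout.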

IC50 [1]: > 100 nM
IC50 [2]: > 100 nM
IC50 [3]: > 100 nM
IC50 [4]: > 100 nM
IC50 [5]: > 100 nM
IC50 [6]: > 100 nM
SMILES: Cn1ncnc1[C@H]1c2n[nH]c(=O)c3cc(F)cc(c23)N[C@@H]1c1ccc(F)cc1 + CC(Nc1ccc2c(c1)OCCn1cc(N3C(=O)OCC3C(F)F)nc1-2)C(N)=O
viability, T/C [7]: 95.9%
viability, T/C [8]: 96.1%
viability, T/C [9]: 89.4%
viability, T/C [10]: 88.8%
viability, T/C [11]: 95.6%
viability, T/C [12]: 81.9%
viability, T/C [13]: 99.7%
viability, T/C [14]: 98.7%
viability, T/C [15]: 94.6%
viability, T/C [16]: 94.2%
viability, T/C [17]: 89.8%
viability, T/C [18]: 91.1%
viability, T/C [19]: 97.8%
viability, T/C [20]: 100%
viability, T/C [21]: 95.4%
viability, T/C [22]: 94.3%
viability, T/C [23]: 98%
viability, T/C [24]: 93.6%
viability, T/C [25]: 101%
viability, T/C [26]: 77.5%
viability, T/C [27]: 93.7%
viability, T/C [28]: 86.2%
viability, T/C [29]: 82%
viability, T/C [30]: 67.1%
viability, T/C [31]: 89.3%
viability, T/C [32]: 94.8%
viability, T/C [33]: 86.2%
viability, T/C [34]: 85.4%
viability, T/C [35]: 77.5%
viability, T/C [36]: 76.2%
viability, T/C [37]: 85.9%
viability, T/C [38]: 77.4%
viability, T/C [39]: 88.2%
viability, T/C [40]: 69.7%
viability, T/C [41]: 70.6%
viability, T/C [42]: 64.4%

IC50 [1]: > 100 nM
IC50 [2]: > 100 nM
IC50 [3]: > 100 nM
IC50 [4]: > 100 nM
IC50 [5]: > 100 nM
IC50 [6]: 91.6 nM
SMILES: CC(=O)c1c(C)c2cnc(Nc3ccc(N4CCNCC4)cn3)nc2n(C2CCCC2)c1=O + CC(Nc1ccc2c(c1)OCCn1cc(N3C(=O)OCC3C(F)F)nc1-2)C(N)=O
viability, T/C [7]: 97.9%
viability, T/C [8]: 106%
viability, T/C [9]: 105%
viability, T/C [10]: 107%
viability, T/C [11]: 99.4%
viability, T/C [12]: 73.7%
viability, T/C [13]: 111%
viability, T/C [14]: 104%
viability, T/C [15]: 104%
viability, T/C [16]: 99.8%
viability, T/C [17]: 99.1%
viability, T/C [18]: 76.8%
viability, T/C [19]: 102%
viability, T/C [20]: 102%
viability, T/C [21]: 93.8%
viability, T/C [22]: 86.8%
viability, T/C [23]: 91%
viability, T/C [24]: 82.6%
viability, T/C [25]: 98.8%
viability, T/C [26]: 87.2%
viability, T/C [27]: 86.1%
viability, T/C [28]: 89%
viability, T/C [29]: 90.4%
viability, T/C [30]: 63.8%
viability, T/C [31]: 96.5%
viability, T/C [32]: 87.1%
viability, T/C [33]: 90.8%
viability, T/C [34]: 77.6%
viability, T/C [35]: 81.4%
viability, T/C [36]: 61.9%
viability, T/C [37]: 86.6%
viability, T/C [38]: 78.5%
viability, T/C [39]: 75%
viability, T/C [40]: 85.1%
viability, T/C [41]: 64.3%
viability, T/C [42]: 48.9%

IC50 (curve of compound): > 1000 nM
SMILES: CCN1CCN(Cc2ccc(Nc3ncc(F)c(-c4cc(F)c5nc(C)n(C(C)C)c5c4)n3)nc2)CC1
viability, T/C (compound 0.00316 µM): 104% (2×) and 94% and 103%
viability, T/C (compound 0.01 µM): 105% [middle of 4 runs]
viability, T/C (compound 0.1 µM): 101% [middle of 4 runs]

IC50 [1]: 2590 nM
IC50 [2]: > 3000 nM
IC50 [3]: 2110 nM
IC50 [4]: 1140 nM
IC50 [5]: 556 nM
IC50 [6]: 158 nM
SMILES: Cn1cnc2c(F)c(Nc3ccc(Br)cc3Cl)c(C(=O)NOCCO)cc21 + CC(Nc1ccc2c(c1)OCCn1cc(N3C(=O)OCC3C(F)F)nc1-2)C(N)=O
viability, T/C (second compound 0.00316 µM, first compound 0.00949 µM): 91.9%
viability, T/C (second compound 0.00316 µM, first compound 0.03 µM): 94.6%
viability, T/C (second compound 0.00316 µM, first compound 0.0949 µM): 80.4%
viability, T/C (second compound 0.00316 µM, first compound 0.3 µM): 80.1%
viability, T/C (second compound 0.00316 µM, first compound 0.949 µM): 75%
viability, T/C (second compound 0.00316 µM, first compound 3 µM): 45.5%
viability, T/C (second compound 0.01 µM, first compound 0.00949 µM): 99.4%
viability, T/C (second compound 0.01 µM, first compound 0.03 µM): 92.8%
viability, T/C (second compound 0.01 µM, first compound 0.0949 µM): 81.1%
viability, T/C (second compound 0.01 µM, first compound 0.3 µM): 72.4%
viability, T/C (second compound 0.01 µM, first compound 0.949 µM): 63.8%
viability, T/C (second compound 0.01 µM, first compound 3 µM): 51.9%
viability, T/C (second compound 0.0316 µM, first compound 0.00949 µM): 96.2%
viability, T/C (second compound 0.0316 µM, first compound 0.03 µM): 92.9%
viability, T/C (second compound 0.0316 µM, first compound 0.0949 µM): 83.8%
viability, T/C (second compound 0.0316 µM, first compound 0.3 µM): 70.4%
viability, T/C (second compound 0.0316 µM, first compound 0.949 µM): 62%
viability, T/C (second compound 0.0316 µM, first compound 3 µM): 45%
viability, T/C (second compound 0.1 µM, first compound 0.00949 µM): 90.8%
viability, T/C (second compound 0.1 µM, first compound 0.03 µM): 83.3%
viability, T/C (second compound 0.1 µM, first compound 0.0949 µM): 76.1%
viability, T/C (second compound 0.1 µM, first compound 0.3 µM): 73.2%
viability, T/C (second compound 0.1 µM, first compound 0.949 µM): 53.8%
viability, T/C (second compound 0.1 µM, first compound 3 µM): 28.5%
viability, T/C (second compound 0.316 µM, first compound 0.00949 µM): 86%
viability, T/C (second compound 0.316 µM, first compound 0.03 µM): 82.8%
viability, T/C (second compound 0.316 µM, first compound 0.0949 µM): 63.9%
viability, T/C (second compound 0.316 µM, first compound 0.3 µM): 62.4%
viability, T/C (second compound 0.316 µM, first compound 0.949 µM): 43.8%
viability, T/C (second compound 0.316 µM, first compound 3 µM): 14.7%
viability, T/C (second compound 1 µM, first compound 0.00949 µM): 72.8%
viability, T/C (second compound 1 µM, first compound 0.03 µM): 57.3%
viability, T/C (second compound 1 µM, first compound 0.0949 µM): 57.1%
viability, T/C (second compound 1 µM, first compound 0.3 µM): 46.4%
viability, T/C (second compound 1 µM, first compound 0.949 µM): 26.2%
viability, T/C (second compound 1 µM, first compound 3 µM): 8.6%
